Assay results as given in a melting point compilation (Tetko et al.).

Row | Compound | melting point
1 | COC(=O)c1cc(C)nc2nc(S)[nH]c(=O)c12 | 259 to 261 °C
2 | CC(C)(C)OC(=O)NC1CCCCC1(C)C(=O)O (stereo not given) | 149 to 151 °C
3 | COc1cc(C(=O)O)cc2c1OCCO2 | 203 to 205 °C
4 | N#Cc1ccc(OCC2CC2)nc1 | 53 to 55 °C
5 | CC(C)c1cc(Br)ccc1O | 48 to 50 °C
6 | COc1cccc(C2C(C(=O)O)CC(=O)N2C2CC2)c1 (stereo not given) | 179 to 181 °C
7 | C#CCn1cnc2c(N)ncnc21 | 184 to 186 °C
8 | CCCNC(=O)CN(C)C(=O)CCl | 212 to 217 °C
9 | CCOC(=O)c1cnc(SC)nc1N | 110 to 120 °C
10 | O=C(O)CNS(=O)(=O)c1ccc(F)c(F)c1F | 175 to 177 °C
11 | Cc1noc(C)c1C(C)CC(=O)O (stereo not given) | 95 to 97 °C
12 | Cc1n[nH]c(C)c1[N+](=O)[O-] | 121 to 123 °C
13 | O=S(=O)(Cl)c1c(Cl)cc(F)cc1Br | 55 to 57 °C
14 | O=C(Nc1ccc(F)cc1)c1ccc2c(c1)OCO2 | 186 to 188 °C
15 | CC1(C)Cc2c(sc(N)c2C#N)C(C)(C)N1 | 197 to 199 °C
16 | O=[N+]([O-])c1cc(S(=O)(=O)Nc2ccccc2)ccc1Cl | 87 to 89 °C
17 | O=C(O)[C@@H]1CCCN1C(=O)Nc1ccc2c(c1)OCCO2 | 176 to 178 °C
18 | CS(=O)(=O)N1CCC(N=C=O)CC1 | 84 to 86 °C
19 | Cc1ccc(F)c(C(=O)O)c1N | 139 to 141 °C
20 | ClCc1csc(-c2ccccc2Cl)n1 | 55 to 57 °C
21 | CC(C)(C)OC(=O)N1CC=C(n2c(=O)[nH]c3ccccc32)CC1 | 201 to 203 °C
22 | Cc1nc(Cl)ccc1C(=O)O | 149 to 151 °C

Row | Compound | melting point
23 | O=C(O)C1CSC(c2cccs2)N1 (stereo not given) | 148 to 150 °C
24 | O=C(O)C1CCCCN1S(=O)(=O)c1cccs1 (stereo not given) | 107 to 109 °C
25 | CC(=O)Nc1cccc(CCl)c1 | 83 to 85 °C
26 | O=C(O)C1CCN(S(=O)(=O)c2ccc3c(c2)OCCCO3)CC1 | 173 to 178 °C
27 | O=C(O)c1occc1CN1CCOCC1 | 184 to 186 °C
28 | O=C(O)c1ccc(NS(=O)(=O)c2ccc(Cl)c([N+](=O)[O-])c2)cc1O | 242 to 244 °C
29 | Cc1cc(C=O)cc(C)c1OCc1ccccc1Cl | 58 to 60 °C
30 | CCCCn1ncc(C(=O)O)c1C | 77 to 79 °C
31 | Clc1nccc(N2CCOCC2)n1 | 111 to 113 °C
32 | CC(C)Cn1c(=O)n(C)c(=O)c2cc(C(=O)O)cnc21 | 219 to 221 °C
33 | O=C(O)c1cc2cc(F)ccc2s1 | 207 to 209 °C
34 | CS(=O)(=O)OC1CCOC2(CCOCC2)C1 (stereo not given) | 110 to 112 °C
35 | CC(=O)CC(=O)Nc1cccnc1Cl | 83 to 85 °C
36 | O=c1[nH]c(-c2ccc(Cl)cc2)co1 | 241 to 243 °C
37 | CCn1c(C)cs/c1=N\c1ccc(Cl)cc1 | 190 to 192 °C
38 | N=C(NN)c1cc(F)cc(F)c1 | 101 to 103 °C
39 | CC(C)C(=O)N1CCC(C(=O)O)CC1 | 102 to 104 °C
40 | O=C(O)Cc1occc1C(=O)O | 204 to 206 °C
41 | Cc1cc(C(=O)O)sc1-c1cccc(Cl)c1 | 178 to 180 °C
42 | Cc1ccc(C2CNCCO2)c(C)c1 (stereo not given) | 49 to 51 °C
43 | Cc1cc(C)c(C)c(S(=O)(=O)N2CCC(C(=O)O)CC2)c1C | 107 to 109 °C
44 | CC1CCN(CC(C)C(=O)NN)CC1 (stereo not given) | 113 to 115 °C

Row | Compound | melting point
45 | Clc1ccncc1Cl | 22 to 23 °C
46 | C=CCn1c(N)c(C#N)sc1=S | 174 to 176 °C
47 | COC(=O)c1[nH]c(C)cc1N | 128 to 130 °C
48 | CCOC(=O)c1c(C2CC2)csc1N | 70 to 72 °C
49 | CN(C(=O)c1ccccc1C(=O)O)C1CCCCC1 | 144 to 146 °C
50 | NC(CCl)=NO | 83 to 87 °C
51 | CC(=O)c1ccc(OC2CCCCC2)c(F)c1 | 48 to 50 °C
52 | CC(N)C(=O)NO (stereo not given) | 159 to 161 °C
53 | O=C(O)CN1CCCOC1=O | 172 to 174 °C
54 | O=c1[nH]c2ccc(C(F)(F)F)cc2c(=O)o1 | 269 to 271 °C
55 | CCn1c(=O)[nH]c2cc(C(=O)O)ccc2c1=O | 347 to 349 °C
56 | CCn1nc(C(=O)O)c(=O)c2ccccc21 | 210 to 212 °C
57 | O=C(O)c1cccc(S(=O)(=O)N2CCCCCC2)c1 | 173 to 175 °C
58 | O=C1CCSc2ccc(C(=O)O)cc2N1 | 262 to 264 °C
59 | CC(=O)N1CCc2cc(C(=O)C(C)Cl)ccc21 (stereo not given) | 129 to 131 °C
60 | Cc1cc2n(n1)CC(C(F)(F)F)CN2 (stereo not given) | 194 to 196 °C
61 | O=C(O)c1cnc(Cl)cc1Cl | 158 to 160 °C
62 | O=C1C2CC1CN(Cc1ccccc1)C2 | 64 to 66 °C
63 | CCNc1ncc(C(=O)O)s1 | 187 to 189 °C
64 | CC(C)(C)OC(=O)NCc1nnn[nH]1 | 153 to 155 °C
65 | Nn1c(S)nnc1-c1cccnc1 | 190 to 192 °C
66 | CS(=O)(=O)c1ccccc1-n1cc(C(=O)O)cn1 | 225 to 227 °C

Row | Compound | melting point
67 | CC1CC1C(N)=O (stereo not given) | 93 to 95 °C
68 | CC(C)(c1ccccc1)c1nnc(N)o1 | 196 to 198 °C
69 | CNc1cc(-c2ccccc2)[nH]n1 | 122 to 124 °C
70 | CSc1cccc(N)c1C | 44 to 46 °C
71 | c1cc(-c2nnc[nH]2)ccn1 | 225 to 227 °C
72 | CC(C)C(=O)N(C)CC(=O)O | 109 to 111 °C
73 | Nc1nc(-c2cccs2)ns1 | 163 to 165 °C
74 | O=C1NC(=O)C2(CCOCC2)N1 | 264 to 266 °C
75 | COC(=O)c1sc(N2CCOCC2)nc1N | 156 to 158 °C
76 | CC(C)N1CCN(C2CCNCC2)CC1 | 49 to 51 °C
77 | COc1ccccc1N(C)S(=O)(=O)c1ccc(Cl)c(C(=O)O)c1 | 179 to 181 °C
78 | CC(C)(C)OC(=O)N1C[C@H](C(=O)O)[C@@H](C(F)(F)F)C1 | 117 to 119 °C
79 | CN(C)c1ncnc2cc(C(=O)O)ccc12 | 323 to 325 °C
80 | O=Cc1cc(CCl)ccc1O | 87 to 89 °C
81 | CC1(C)NC(=O)N(c2cccc(C#N)c2)C1=O | 159 to 161 °C
82 | CCC(=O)NC=C(Cl)Cl | 93 to 95 °C
83 | O=c1[nH]c(-c2ccccc2)no1 | 184 to 186 °C
84 | CC(C)(C)OC(=O)CNC(=O)CCl | 66 to 68 °C
85 | Cc1ccn2c(C(=O)O)cnc2c1 | 159 to 161 °C
86 | CSc1ccc(C(=O)CCl)cc1 | 72 to 74 °C

The remaining lines, values ahead:

Row | melting point | Compound
87 | 189 to 191 °C | COC(=O)c1cccc(-c2nn[nH]n2)c1
88 | 193 to 195 °C | COc1ccccc1NC(=O)c1ccc(NC(=O)CCCl)cc1
89 | 303 to 305 °C | Nc1c(C(=O)O)cnc2ccccc12
90 | 142 to 144 °C | O=C(O)Cc1csc(-c2ccc(Br)s2)n1
91 | 165 to 167 °C | O=C(O)CCn1cnc2sccc2c1=O
92 | 88 to 90 °C | NCCN1C(=O)Cc2ccccc21
93 | 273 to 275 °C | O=C(O)c1sc2cccc(Cl)c2c1Cl
94 | 97 to 99 °C | CCOC(=O)/C(C#N)=C\Nc1ccc(CC)cc1
95 | 148 to 150 °C | Cc1ccc(-c2cc(N)on2)cc1
96 | 74 to 76 °C | CCOc1ccccc1C(=O)CBr
97 | 155 to 159 °C | CC(C)OC(=O)c1cccc(-c2nn[nH]n2)c1
98 | 150 to 152 °C | O=C1CCc2cc(OCCCl)ccc2N1
99 | 144 to 146 °C | CC(C)(C)OC(=O)NCC(C(=O)O)c1ccccc1 (stereo not given)
100 | 29 to 34 °C | Clc1ccc(OCCCBr)cc1
101 | 258 to 260 °C | NC(=O)c1ccc(-c2nn[nH]n2)cc1
102 | 146 to 148 °C | O=C(O)CNS(=O)(=O)c1ccc(F)cc1
103 | 187 to 189 °C | O=C(O)c1cnc(-c2ccccc2F)s1
104 | 193 to 195 °C | O=C(CCl)NCc1ccc(C(=O)O)cc1
105 | 219 to 221 °C | CCC(C)NS(=O)(=O)c1ccc(C(=O)O)cc1 (stereo not given)
106 | 106 to 108 °C | NCc1ccc(OCC(N)=O)cc1

Row | melting point | Compound
107 | 107 to 109 °C | COC(=O)C(C#N)=Cc1cccc(F)c1
108 | 152 to 154 °C | CS(=O)(=O)c1ccc(Oc2ccc(N)cc2)cc1
109 | 114 to 116 °C | CCOc1ccc(C(CN)c2c[nH]c3ccccc23)cc1OC (stereo not given)
110 | 137 to 139 °C | CCc1nnc(-c2ccc(N)cc2)o1
111 | 163 to 165 °C | N#Cc1cccc(NC(=O)c2cccc(N)c2)c1
112 | 104 to 106 °C | COC(=O)C(C)(O)c1ccncc1 (stereo not given)
113 | 119 to 121 °C | CC(C(=O)O)N(C)C(=O)OCC1c2ccccc2-c2ccccc21 (stereo not given)
114 | 48 to 50 °C | COc1ccc(C(=O)CCl)c(OC)c1
115 | 39 to 41 °C | COC(=O)CCc1ccc(N)cc1
116 | 204 to 206 °C | CC(=O)Nc1ccc(-c2csc(N)n2)c(F)c1
117 | 115 to 117 °C | O=CNc1cccc(O)c1
118 | 155 to 157 °C | COc1ccc(Cl)cc1NS(=O)(=O)c1cccc(C(=O)O)c1
119 | 107 to 109 °C | COC(=O)c1sc(-c2cccc(Br)c2)cc1N
120 | 139 to 141 °C | N#CCC(=O)Nc1cccc(Cl)c1
121 | 44 to 46 °C | COC(=O)c1ccc(CBr)cc1OC
122 | 124 to 126 °C | NC(=O)c1cc(Oc2cccc(O)c2)ccn1
123 | 83 to 85 °C | CC(=O)c1ccn(S(=O)(=O)c2ccc(C)cc2)c1
124 | 137 to 139 °C | Cc1cc(OCC(N)=O)ccc1N
125 | 182 to 184 °C | O=S(=O)(CCN1CCCC(O)C1)c1ccc(Br)cc1 (stereo not given)
126 | 79 to 81 °C | CCOC(=O)Cc1nc2cc(Cl)ccc2s1

Row | melting point | Compound
127 | 82 to 84 °C | NCC(=O)Nc1cccc(F)c1
128 | 66 to 68 °C | COc1ccc(Cl)cc1NC(=O)CCN
129 | 161 to 163 °C | O=C(O)c1ccc(Sc2ccc(Cl)cc2)o1
130 | 94 to 96 °C | Cc1nc(-c2cccc(NC(=O)OCC(F)(F)F)c2)cs1
131 | 149 to 151 °C | COc1ccc(S(=O)(=O)Cl)cc1CC(=O)O
132 | 193 to 195 °C | Nc1ccc2c(C(=O)O)c[nH]c2c1
133 | 130 to 132 °C | O=C(O)CCn1ncc(=O)c2ccccc21
134 | 97 to 99 °C | O=[N+]([O-])c1ccc(OC2CCNCC2)cc1
135 | 37 to 39 °C | O=S(=O)(Cl)CCOc1ccccc1
136 | 60 to 62 °C | S=C=Nc1cccc2ncccc12
137 | 109 to 111 °C | COc1ccc(CC(N)=NO)cc1
138 | 99 to 101 °C | NNC(=O)Cc1cccnc1
139 | 75 to 77 °C | CC1Cc2ccccc2N1C(=O)CO (stereo not given)
140 | 130 to 132 °C | Cc1ccc(OCC(=O)O)c(Br)c1
141 | 41 to 43 °C | N#CC(=O)c1ccc(Cl)cc1
142 | 136 to 138 °C | CN(Cc1nn[nH]n1)C(=O)c1ccccc1
143 | 143 to 145 °C | NC(=O)c1cc(F)ccc1N
144 | 178 to 182 °C | COc1ccccc1NC(=O)c1c(C)n[nH]c1N
145 | 255 to 257 °C | N=c1nc[nH]c2c1ncn2CCC(N)=O
